Test results reported in ChEMBL document CHEMBL1151121, “1H-nmr analysis of herbimycins and dihydro-herbimycins” (1988).
In brackets after ≈: the same amount, converted by molar mass.

Tests used:
[1] = system: P388; test: Cytotoxicity against mouse P388 cells; type: functional; details: read-out: ED50 (the source's name)
[2] = system: KB; test: Cytotoxicity against human KB cells; type: functional; details: read-out: ED50 (the source's name)

## CO[C@H]1/C=C\C=C(/C)C(=O)Nc2cc(O)cc(c2O)C[C@@H](C)C[C@H](OC)[C@H](O)[C@@H](C)/C=C(\C)[C@@H]1OC(N)=O
[1]
  EC50: 0.34 µg/mL (≈ 0.638 µM)
[2]
  EC50: 3.49 µg/mL (≈ 6.55 µM)

## CO[C@H]1[C@@H](OC)C[C@H](C)[C@@H](OC)c2cc(O)cc(c2O)NC(=O)/C(C)=C/C=C\[C@H](OC)[C@@H](OC(N)=O)/C(C)=C/[C@@H]1C [DIHYDRO-HERBIMYCIN A]
[1]
  EC50: 0.022 µg/mL (≈ 0.0381 µM)
[2]
  EC50: 0.3 µg/mL (≈ 0.52 µM)

## CO[C@H]1/C=C\C=C(/C)C(=O)NC2=CC(=O)C=C(C2=O)[C@H](OC)[C@@H](C)C[C@H](OC)[C@H](O)[C@@H](C)/C=C(\C)[C@@H]1OC(N)=O [HERBIMYCIN C]
[1]
  EC50: 0.17 µg/mL (≈ 0.303 µM)
[2]
  EC50: 0.12 µg/mL (≈ 0.214 µM)

## CO[C@H]1[C@@H](OC)C[C@H](C)[C@@H](OC)C2=CC(=O)C=C(NC(=O)/C(C)=C/C=C/[C@H](OC)[C@@H](OC(N)=O)/C(C)=C/[C@@H]1C)C2=O [HERBIMYCIN]
[1]
  EC50: 0.0051 µg/mL (≈ 0.00887 µM)
[2]
  EC50: 0.12 µg/mL (≈ 0.209 µM)
